Laboratory results reported in paper PMC6497469 (Infection and Drug Resistance, 2019).

How the values were obtained:
PA0847 [1] = target: T1, PA0847 (Pseudomonas aeruginosa, UniProt Q9I594); assay: titration of GTPγS to purified PAS-GGDEF; type: binding
T1 sequence (Q9I594 440-735 limits assumed): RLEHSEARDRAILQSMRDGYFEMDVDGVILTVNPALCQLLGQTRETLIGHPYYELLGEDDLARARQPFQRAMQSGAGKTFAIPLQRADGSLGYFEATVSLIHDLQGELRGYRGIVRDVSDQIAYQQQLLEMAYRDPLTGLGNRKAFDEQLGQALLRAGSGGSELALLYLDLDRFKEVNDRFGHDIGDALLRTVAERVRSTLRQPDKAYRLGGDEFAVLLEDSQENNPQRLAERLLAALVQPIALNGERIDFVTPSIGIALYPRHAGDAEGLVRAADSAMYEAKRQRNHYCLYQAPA

PA0847 [2] = target: T1, PA0847; assay: binding of c-di-GMP to purified PAS-GGDEF
[3] = target: PA0847 PAS-GGDEF dual domains (Pseudomonas aeruginosa PAO1); assay: SEC

## Nc1nc2c(ncn2[C@@H]2O[C@H](COP(=O)(O)OP(=O)(O)OP(O)(O)=S)[C@@H](O)[C@H]2O)c(=O)[nH]1 [GTPγS]
PA0847 [1]
  Kd: 15.3 ± 1.3 µM

## Nc1nc2c(ncn2[C@@H]2O[C@@H]3CO[P@](=O)(O)O[C@H]4[C@@H](O)[C@H](n5cnc6c(=O)[nH]c(N)nc65)O[C@@H]4CO[P@](=O)(O)O[C@H]3[C@H]2O)c(=O)[nH]1 [c-di-GMP]
PA0847 [2]
  Kd: ~59 µM

## PA0847 PAS-GGDEF dual domains (domain or fragment)
[3]
  stoichiometry N: 2
